Columns and labels:
serum IgG antibodies = experiment: Serum IgG antibody binding to oligonucleotides on antigen microarray; design: species or system human; details: for IgG reactivities compared to T17: individual subjects (FIGS. 5A-B); for IgG binding compared to G17: individual subjects (FIG. 4)
Experimental: (§1) In a follow-up study, sera samples obtained from 23 healthy subjects, 24 SSc patients, and 49 SLE patients were tested using an antigen microarray that included 58 single-stranded oligonucleotides. Overall, 60 SLE patients, 26 SSc patients, 18 PV patients, and 31 healthy subjects were tested.
(§2) In a follow-up study, 58 different oligonucleotides, as well as double and single stranded DNA, in various lengths (104 different preparations overall), were spotted on epoxy-activated glass substrates (ArrayIt SuperEpoxi microarray substrate slides, Sunnyvale, Calif.). […] The microarrays were then blocked for 1 hour at 37° with 1% bovine serum albumin. Test serum samples in 1% Bovine Serum Albumin (BSA) blocking buffer (1:10 dilution) were incubated under a coverslip for 1 hour at 37°. The arrays were then washed and incubated for 1 hour at 37° with a 1:500 dilution of two detection antibodies, mixed together: a goat anti-human IgG Cy3-conjugated antibody, and a goat anti-human IgM Cy5-conjugated antibody (both purchased from Jackson ImmunoResearch Laboratories Inc., West Grove, Pa.). Image acquisition was performed by laser (Agilent Technologies, Santa Clara, Calif.) and the results were analyzed using Quantarray software (Packard BioChip Technologies, Billerica, Mass.). The quantitative range of signal intensity of binding to each antigen spot was 0-65,000; this range of detection made it possible to obtain reliable data at a 1:10 dilution of test serum samples.
(§3) Alternatively, oligonucleotides and double and single stranded DNA in various chain lengths were spotted on epoxyhexyltriethoxysilane (EHTES) activated slides. The microarrays were then blocked for 1 hour at room temperature with 1% casein. Test serum samples in 1% casein blocking buffer (1:20 dilution) were incubated under a coverslip for 1 hour at 37°. The arrays were then washed and incubated for 1 hour at 37° with a 1:500 dilution of two detection antibodies, mixed together: a goat anti-human IgG Cy3-conjugated antibody, and a goat anti-human IgM AF647-conjugated antibody (both purchased from Jackson ImmunoResearch Laboratories Inc., West Grove, Pa.). Image acquisition was performed by laser at two wavelengths 530 nm and 630 nm (Agilent Technologies, Santa Clara, Calif.) and the results were analyzed using Genepix Pro 7.0 software with default settings. The quantitative range of signal intensity of binding to each antigen spot was 0-65,000; this range of detection made it possible to obtain reliable data at a 1:20 dilution of test samples.
(§4) Each spot's intensity is represented by its pixels' mean after subtraction of its local background median, followed by Log 2 transform. Negative spots (following background subtraction) are imputed with background-like intensity. The foreground and background intensities of multiple spots of each antigen were averaged, and the difference between the foreground and the background was calculated.

serum IgM antibodies = experiment: Serum IgM antibody binding to oligonucleotides on antigen microarray; design: species or system human; details: for IgM reactivities compared to T17: individual subjects (FIGS. 5A-B); for IgM binding compared to G17: individual subjects (FIG. 4)
Experimental: as §1, §2, §3, §4

poly-G autoantibody = experiment: Poly-G autoantibody levels in kidney transplanted patients at baseline and 24 weeks after transplantation and immunosuppression (antigen microarray); type: in vivo, human; design: reduction in G14 IgM autoantibody intensity / reduction in G14 IgG autoantibody intensity / reduction in G40 IgM autoantibody intensity: concentration or dose not given beside the values
[1] = both studies combined: 60 SLE, 26 SSc, 18 PV patients, 31 healthy subjects
[2] = healthy subjects, SSc and PV patients (FIG. 1)
[3] = median intensity, 24 weeks after Tx vs baseline

A20: 20-mer adenine homo-nucleotide (AAAAAAAAAAAAAAAAAAAA; listed as DNA, chemistry not fully specified)
IgG reactivities (serum IgG antibodies; [1]): relatively low reactivities | IgG reactivities (serum IgG antibodies; [2]): very low or no reactivities

CGCGCGCGCGCGCGCGCGCG (listed as DNA, chemistry not given here) [(CG)10]
IgG reactivities (serum IgG antibodies; group of SLE patients, mainly positive for anti-dsDNA (FIG. 6)): high IgG reactivities | IgM reactivities (serum IgM antibodies; healthy subjects, SSc and SLE patients (FIG. 6)): high in all but one of the healthy subjects, in all of the SSc patients and in most of the SLE patients

G1T16: poly-T chain with a single G at the 5′ end (DNA GTTTTTTTTTTTTTTTT; listed as DNA, chemistry not fully specified)
IgG reactivities compared to T17 (serum IgG antibodies): increased in almost all the subjects | IgM reactivities compared to T17 (serum IgM antibodies): increased in almost all the subjects

G2T16: modified T17 oligonucleotide (DNA GGTTTTTTTTTTTTTTTT; listed as DNA, chemistry not fully specified)
IgG reactivities compared to T17 (serum IgG antibodies): also increased compared to T17 | IgM reactivities compared to T17 (serum IgM antibodies): also increased compared to T17

G16T1: G16 with a single T added at the 3′ end (GGGGGGGGGGGGGGGGT; listed as DNA, chemistry not fully specified)
IgG binding compared to G17 (serum IgG antibodies): considerably less than the binding to G17 | IgM binding compared to G17 (serum IgM antibodies): considerably less than the binding to G17

G17: poly-guanine oligonucleotide antigen, 17 guanines (GGGGGGGGGGGGGGGGG; listed as DNA, chemistry not fully specified)
mean IgG reactivities as a function of chain length (serum IgG antibodies; healthy, SSc, SLE dsDNA-negative and -positive groups (FIG. 3)): fell significantly

T16G1: poly-T chain with a single G at the 3′ end (DNA TTTTTTTTTTTTTTTTG; listed as DNA, chemistry not fully specified)
IgG reactivities compared to T17 (serum IgG antibodies): increased in almost all the subjects | IgM reactivities compared to T17 (serum IgM antibodies): increased in almost all the subjects

T16G2: modified T17 oligonucleotide (DNA TTTTTTTTTTTTTTTTGG; listed as DNA, chemistry not fully specified)
IgG reactivities compared to T17 (serum IgG antibodies): also increased compared to T17 | IgM reactivities compared to T17 (serum IgM antibodies): also increased compared to T17

T20: 20-mer thymine homo-nucleotide (DNA TTTTTTTTTTTTTTTTTTTT)
IgG reactivities (serum IgG antibodies; [1]): relatively low reactivities | IgG reactivities (serum IgG antibodies; [2]): very low or no reactivities

TGGGGGGGGGGGGGGGG (listed as DNA, chemistry not given here) [T1G16]
IgG binding compared to G17 (serum IgG antibodies): essentially equal to the binding to the G17 | IgM binding compared to G17 (serum IgM antibodies): essentially equal to the binding to the G17

belatacept
patients in whom the reduction in poly-G autoantibody intensity was observed (poly-G autoantibody; 6 months post immunosuppression administration, 6 patients per group): observed in all belatacept patients | reduction in autoantibodies median intensity, combined poly-G reactivity (poly-G autoantibody; FIGS. 12A-B, 24 weeks after Tx vs baseline, belatacept vs CsA): greater reduction | Antibody level 24 weeks after transplantation and drug administration compared to baseline (%, median intensity): IgG levels against G14 (SEQ ID NO: 41) (poly-G autoantibody; kidney transplanted patients, serum, 24 weeks after Tx vs baseline, IgG, G14): 53% | Antibody level 24 weeks after transplantation and drug administration compared to baseline (%, median intensity): IgG levels against G17 (SEQ ID NO: 36) (poly-G autoantibody; kidney transplanted patients, serum, 24 weeks after Tx vs baseline, IgG, G17): 70% | Antibody level 24 weeks after transplantation and drug administration compared to baseline (%, median intensity): IgG levels against G20 (SEQ ID NO: 43) (poly-G autoantibody; kidney transplanted patients, serum, 24 weeks after Tx vs baseline, IgG, G20): 58% | Antibody level 24 weeks after transplantation and drug administration compared to baseline (%, median intensity): IgG levels against G30 (SEQ ID NO: 65) (poly-G autoantibody; kidney transplanted patients, serum, 24 weeks after Tx vs baseline, IgG, G30): 67% | Antibody level 24 weeks after transplantation and drug administration compared to baseline (%, median intensity): IgG levels against G40 (SEQ ID NO: 66) (poly-G autoantibody; kidney transplanted patients, serum, 24 weeks after Tx vs baseline, IgG, G40): 81% | Antibody level 24 weeks after transplantation and drug administration compared to baseline (%, median intensity): IgM levels against G14 (SEQ ID NO: 41) (poly-G autoantibody; kidney transplanted patients, serum, 24 weeks after Tx vs baseline, IgM, G14): 45% | Antibody level 24 weeks after transplantation and drug administration compared to baseline (%, median intensity): IgM levels against G17 (SEQ ID NO: 36) (poly-G autoantibody; kidney transplanted patients, serum, 24 weeks after Tx vs baseline, IgM, G17): 63% | Antibody level 24 weeks after transplantation and drug administration compared to baseline (%, median intensity): IgM levels against G20 (SEQ ID NO: 43) (poly-G autoantibody; kidney transplanted patients, serum, 24 weeks after Tx vs baseline, IgM, G20): 63% | Antibody level 24 weeks after transplantation and drug administration compared to baseline (%, median intensity): IgM levels against G30 (SEQ ID NO: 65) (poly-G autoantibody; kidney transplanted patients, serum, 24 weeks after Tx vs baseline, IgM, G30): 59% | Antibody level 24 weeks after transplantation and drug administration compared to baseline (%, median intensity): IgM levels against G40 (SEQ ID NO: 66) (poly-G autoantibody; kidney transplanted patients, serum, 24 weeks after Tx vs baseline, IgM, G40): 72% | reduction in G14 IgG autoantibody intensity (poly-G autoantibody; [3]): 47% | reduction in G14 IgM autoantibody intensity (poly-G autoantibody; [3]): 55% | reduction in G17 IgG autoantibody intensity (poly-G autoantibody; [3]): 30% | reduction in G17 IgM autoantibody intensity (FIG. 8A) (poly-G autoantibody; [3]): 37% | reduction in G20 IgG autoantibody intensity (poly-G autoantibody; [3]): 42% | reduction in G20 IgM autoantibody intensity (poly-G autoantibody; [3]): 37% | reduction in G30 IgG autoantibody intensity (poly-G autoantibody; [3]): 33% | reduction in G30 IgM autoantibody intensity (poly-G autoantibody; [3]): 41% | reduction in G40 IgG autoantibody intensity (poly-G autoantibody; [3]): 19% | reduction in G40 IgM autoantibody intensity (poly-G autoantibody; [3]): 28%
